One data set deals with global DNA methylation. Description: Global DNA methylation in mouse tissues (Epigentek Methylamp Global DNA Methylation Quantification Kit). In kind it is in vivo, mice. As to conditions: for effect on global DNA methylation in the kidneys after 48 hours / reduction in global DNA methylation in the kidneys: 38 mg/kg TAC p.o. or 25 mg/kg ACT i.v.; for reduction in global DNA methylation in the kidneys: within 24 hours. Here is the method:
The pharmacodynamic effect of TAC and ACT was determined at 24 and 48 hours following drug administration after the female C57/BL6 mice were euthanized, their tissues rapidly harvested, snap-frozen in liquid nitrogen, and stored at −80° C. The effect on methylation was determined by using the Epigentek Methylamp™ Global DNA Methylation Quantification Kit. Isolated genomic DNA from mouse tissues 24 or 48 hours after treatment with 25 mg/kg ACT i.v. and 38 mg/kg TAC p.o., methylation status was determined using 100 ng of each gDNA sample.

The test system of a further data set is Lymphoid leukemia L1210. Description: Survival of leukemic BDF1 mice inoculated i.p. with L1210 cells. In kind it is in vivo. The protocol: Lymphoid leukemia L1210 was carried in BDF1 mice by weekly i.p. passages. Ascites fluid was aspirated from a donor mouse and sampled, and an aliquot was carefully diluted and counted in a hemocytometer. The original suspension of cells was then diluted appropriately in […] medium to 1×10^6 cells/ml. and injected i.p. (1×10^5 cells/0.1 ml/mouse) into recipient BDF1 mice.
A daily oral administration injection of TAC (38 mg/kg) diluted in PBS was given to leukemic BDF1 mice by oral gavage starting 24 hours from the inoculation of L1210 cells for a total of 5 days. A group of untreated leukemic mice of the same strain, sex, age, and weight served as controls.

Data set [1] in a line: Pharmacokinetics and metabolism of TAC in mice (plasma LC/MS/MS). The format is in vivo. As to conditions: female, C57/BL6, mouse. Here is the method:
The title product and its active metabolite azacytidine (ACT) were then subjected to LC/MS/MS analysis using the following protocol. Stock solutions were prepared by weighing out 5-10 mg of TAC which was dissolves in methanol to a final concentration of about 0.5 mg/ml. The solution was labeled as “TAC Stock.” 2-3 mg of ACT were then weighed and dissolved in methanol to a final concentration of about 0.2 mg/ml. The solution was labeled as “ACT Stock.” Finally, the TAC and ACT stocks were diluted to a concentration of about 50 μg/ml in methanol, and labeled as “ACT/TAC Stock.” All solutions were stored at −20° C. […]
Samples were then initially prepared as follows. A measured aliquot of the acetonitrile extracted plasma sample was removed and placed into a 10×75 mm disposable glass test tube, followed by evaporating liquid down to approximately 50 μl under nitrogen at 37° C., diluting with 1 ml 2% phosphoric acid, and vortexing for 10 seconds at 3,000 rpm.
The samples were then analyzed by the SPE, HPLC and MS/MS methods. […]
Individual concentration-time data were analyzed using noncompartmental methods using WinNonlin Professional (Pharsight, Mountain View, Calif.). […] The terminal rate constant (λz) is determined from the slope of the terminal phase of the plasma concentration-time curve using uniform weight. The terminal half-life (T1/2) was calculated as 0.693 divided by λz. […]

Data set [2] deals with myelodysplastic syndromes. As to conditions: 15 mg/m^2 intravenously over 4 hours three times a day for 3 days; cited from earlier work.
The subject of data set [3] is myelodysplastic syndromes. As to conditions: 75 mg/m^2 subcutaneously daily for 7 days every 4 weeks, cited from earlier work.

Consider `CC(=O)OC[C@H]1O[C@@H](n2cnc(N)nc2=O)[C@H](OC(C)=O)[C@@H]1OC(C)=O` [TAC, 2′,3′,5′-triacetyl-5-azacytidine], for which, in the data set with global DNA methylation, the “effect on global DNA methylation in the kidneys after 48 hours” value is “subsided” and the “reduction in global DNA methylation in the kidneys” value was 50%. In the data set with global DNA methylation (spleen, later time point, oral TAC 38 mg/kg), the “further decrease in methylation in spleen compared to untreated tissue” value is listed as 40%. The median survival time with Lymphoid leukemia L1210 (TAC 38 mg/kg daily by oral gavage for 5 days, starting 24 hours after L1210 inoculation) is recorded as 14 days. This compound came in with an increased lifespan with Lymphoid leukemia L1210 (TAC 38 mg/kg daily oral for 5 days versus untreated control group) of 55%. Further, the concentration at 4 h in data set [1] (plasma, by 4 hours after oral administration of 38 mg/kg TAC, read-out: TAC plasma concentration (below the limit of detection)) is less than 30 ng/mL.
`Nc1ncn([C@H]2C[C@H](O)[C@@H](CO)O2)c(=O)n1` [decitabine, 4-amino-1-(2-deoxy-b-D-erythro-pentofuranosyl)-1,3,5-triazin-2(1H)-one]: the overall response rate in data set [2] is given as 49%.
Consider `Nc1ncn([C@@H]2O[C@H](CO)[C@@H](O)[C@H]2O)c(=O)n1` [ACT, 4-amino-1-β-D-ribofuranosyl-1,3,5-triazin-2(1H)-one], for which the “mean time to response” value in data set [3] is “six”. In data set [3] (higher-risk groups), the response was 61%. The response rate in data set [3] (lower-risk patients with refractory anemia) was 60%. Further, in the data set with global DNA methylation, the “effect on global DNA methylation in the kidneys after 48 hours” value was “subsided” and the “reduction in global DNA methylation in the kidneys” value was 50%. The half-life in data set [1] (iv, 25 mg/kg, azacytidine administered i.v., mice plasma) lay in the range of 4 to 5 h.

Usually half-life stands for the time needed for the level to fall by half in the phase considered. A low value points to rapid decline.

Values taken from US20080182806A1, “USE OF ACETYLATED OR ESTERIFICATED AZACYTIDINE, DECITABINE, OR OTHER NUCLEOSIDE ANALOGS AS ORAL AGENTS FOR THE TREATMENT OF TUMORS OR OTHER DYSPLASTIC SYNDROMES SENSITIVE TO HYPOMETHYLATING AGENTS” (Nevada Cancer Institute, priority 2007, published 2008).
